Bounds are passed on as bounds.

This experiment deals with BTK (Homo sapiens (Human), UniProt Q06187). In words: Btk kinase assay (HTRF). To be noted: [ATP]=80 μM, BTK=3.4 nM; read-out: BTK Inhibition. It is filed as biochemical. The method in brief: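 HTRF kinase read-out (665/615 nm ratio, excitation 330 nm) after EDTA quench and 1 h detection incubation. Reaction: 3.4 nM BTK, ATP 80 μM, peptide substrate 1 μM, compound, HEPES pH 7.0 buffer, 1 h; IC50 derived using uninhibited and enzyme-free controls.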
Sequence of BTK (Q06187 whole entry, species assumed): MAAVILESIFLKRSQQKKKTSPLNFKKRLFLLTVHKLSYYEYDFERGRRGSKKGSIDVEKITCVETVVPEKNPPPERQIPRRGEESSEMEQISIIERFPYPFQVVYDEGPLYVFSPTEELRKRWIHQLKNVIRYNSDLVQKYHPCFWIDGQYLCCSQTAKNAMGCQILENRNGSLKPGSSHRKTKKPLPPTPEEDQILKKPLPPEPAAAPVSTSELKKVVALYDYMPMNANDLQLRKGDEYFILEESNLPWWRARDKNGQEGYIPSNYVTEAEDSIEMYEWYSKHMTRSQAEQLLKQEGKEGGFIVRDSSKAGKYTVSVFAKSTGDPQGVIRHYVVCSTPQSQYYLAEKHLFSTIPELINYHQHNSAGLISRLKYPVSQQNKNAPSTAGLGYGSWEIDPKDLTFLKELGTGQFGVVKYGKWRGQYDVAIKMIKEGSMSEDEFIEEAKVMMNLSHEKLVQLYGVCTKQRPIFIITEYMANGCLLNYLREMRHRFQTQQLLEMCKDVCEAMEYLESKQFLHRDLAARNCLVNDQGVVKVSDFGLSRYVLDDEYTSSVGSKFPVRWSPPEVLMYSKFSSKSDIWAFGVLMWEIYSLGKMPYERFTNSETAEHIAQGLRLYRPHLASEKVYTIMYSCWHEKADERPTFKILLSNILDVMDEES
(In general: Time-resolved FRET reads energy transfer from a long-lived donor to a nearby acceptor.)
Take `C=CC(=O)N1CCC[C@@H](n2c(=O)n(-c3ccc(Oc4cccc(Cl)c4F)cc3)c3cnccc32)C1` [Example 59, (R)-1-(1-acryloylpiperidin-3-yl)-3-(4-(3-chloro-2-fluorophenoxy)phenyl)-1H-imidazo[4,5-c]pyridin-2(3H)-one]: the IC50 lay in the range of 10 to 100 nM.
With `C=CC(=O)Nc1cccc(-n2c(=O)n(-c3ccc(Oc4cccc(F)c4)c(C)c3)c3cnccc32)c1` [Example 146, N-(3-(3-(4-(3-fluorophenoxy)-3-methylphenyl)-2-oxo-2,3-dihydro-1H-imidazo[4,5-c]pyridin-1-yl)phenyl)acrylamide] the figure was 10 to 100 nM.
In the case of `C=CC(=O)Nc1cccc(-n2c(=O)n(-c3cccc(Oc4cccc(Cl)c4F)c3)c3cnccc32)c1` [Example 96, N-(3-(3-(3-(3-chloro-2-fluorophenoxy)phenyl)-2-oxo-2,3-dihydro-1H-imidazo[4,5-c]pyridin-1-yl)phenyl)acrylamide], the IC50 lay within 10 to 100 nM.
With `C=CC(=O)Nc1cccc(-n2c(=O)n(-c3cccc(Oc4cccc(OC)c4)c3)c3cnccc32)c1` [Example 87, N-(3-(3-(3-(3-methoxyphenoxy)phenyl)-2-oxo-2,3-dihydro-1H-imidazo[4,5-c]pyridin-1-yl)phenyl)acrylamide] the figure was 10 to 100 nM.
On to `C=CC(=O)Nc1cccc(-n2c(=O)n(-c3ccc(Oc4ccc(C(F)(F)F)cc4)c(Cl)c3)c3cnccc32)c1` [Example 111, N-(3-(3-(3-chloro-4-(4-(trifluoromethyl)phenoxy)phenyl)-2-oxo-2,3-dihydro-1H-imidazo[4,5-c]pyridin-1-yl)phenyl)acrylamide], for which the IC50 fell in the range of 1000 to 10000 nM.
Regarding `CC#CC(=O)N1CCC[C@@H](n2c(=O)n(-c3ccc(Oc4cccc(OC)c4F)cc3)c3cncc(C)c32)C1` [Example 171, (R)-1-(1-(but-2-ynoyl)piperidin-3-yl)-3-(4-(2-fluoro-3-methoxyphenoxy)phenyl)-7-methyl-1H-imidazo[4,5-c]pyridin-2(3H)-one], the IC50 lay within 100 to 1000 nM.
For the compound `C=CC(=O)Nc1cccc(-n2c(=O)n(-c3ccc(Oc4ccccc4)c(F)c3)c3cnccc32)c1` [Example 93, N-(3-(3-(3-fluoro-4-phenoxyphenyl)-2-oxo-2,3-dihydro-1H-imidazo[4,5-c]pyridin-1-yl)phenyl)acrylamide], the IC50 is ≤ 10 nM.
Turning to `C=CC(=O)N1CC[C@@H](n2c(=O)n(-c3ccc(Oc4cccc(OC)c4C)cc3)c3cnccc32)C1` [Example 143, (R)-1-(1-acryloylpyrrolidin-3-yl)-3-(4-(3-methoxy-2-methylphenoxy)phenyl)-1H-imidazo[4,5-c]pyridin-2(3H)-one], the IC50 lay in the range of 10 to 100 nM.
Under `C=CC(=O)N1CCC[C@@H](n2c(=O)n(-c3ccc(Oc4cccc(C)c4)c(F)c3)c3cnccc32)C1` [Example 105, (R)-1-(1-acryloylpiperidin-3-yl)-3-(3-fluoro-4-(m-tolyloxy)phenyl)-1H-imidazo[4,5-c]pyridin-2(3H)-one] stands 10 to 100 nM; under `C=CC(=O)N1CC[C@@H](n2c(=O)n(-c3ccc(Oc4ccc(Cl)c(Cl)c4)cc3)c3cnccc32)C1` [Example 37, (R)-1-(1-acryloylpyrrolidin-3-yl)-3-(4-(3,4-dichlorophenoxy)phenyl)-1H-imidazo[4,5-c]pyridin-2(3H)-one], 100 to 1000 nM; under `C=CC(=O)Nc1cccc(-n2c(=O)n(-c3ccc(OCc4ccc(Cl)c(Cl)c4)cc3)c3cnccc32)c1` [Example 218, N-(3-(3-(4-((3,4-dichlorobenzyl)oxy)phenyl)-2-oxo-2,3-dihydro-1H-imidazo[4,5-c]pyridin-1-yl)phenyl)acrylamide], 100 to 1000 nM.
As to `C=CC(=O)N1CC[C@@H](n2c(=O)n(-c3ccc(Oc4cccc(OC)c4)c(Cl)c3)c3cnccc32)C1` [Example 45, (R)-1-(1-acryloylpyrrolidin-3-yl)-3-(3-chloro-4-(3-methoxyphenoxy)phenyl)-1H-imidazo[4,5-c]pyridin-2(3H)-one], the IC50 fell in the range of 10 to 100 nM.
Under `C=CC(=O)Nc1cccc(-n2c(=O)n(-c3ccc(NC(=O)c4cccc(Cl)c4)cc3)c3cnccc32)c1` [Example 259, N-(4-(1-(3-acrylamidophenyl)-2-oxo-1H-imidazo[4,5-c]pyridin-3(2H)-yl)phenyl)-3-chlorobenzamide] stands 100 to 1000 nM; under `C=CC(=O)Nc1cccc(-n2c(=O)n(-c3cccc(Oc4ccccc4)c3)c3cnccc32)c1` [Example 7, N-(3-(2-oxo-3-(3-phenoxyphenyl)-2,3-dihydro-1H-imidazo[4,5-c]pyridin-1-yl)phenyl)acrylamide], 10 to 100 nM; under `C=CC(=O)N1CC[C@@H](n2c(=O)n(-c3cccc(Oc4ccc(C)cc4)c3)c3cnccc32)C1` [Example 16, (R)-1-(1-acryloylpyrrolidin-3-yl)-3-(3-(p-tolyloxy)phenyl)-1H-imidazo[4,5-c]pyridin-2(3H)-one], 10 to 100 nM.
With `C=CC(=O)Nc1cccc(-n2c(=O)n(-c3ccc(Oc4cccc(OC(C)C)c4)c(Cl)c3)c3cnccc32)c1` [Example 145, N-(3-(3-(3-chloro-4-(3-isopropoxyphenoxy)phenyl)-2-oxo-2,3-dihydro-1H-imidazo[4,5-c]pyridin-1-yl)phenyl)acrylamide] the figure was 100 to 1000 nM; with `C=CC(=O)Nc1cccc(-n2c(=O)n(-c3ccc(Oc4cccc(F)c4OC)cc3)c3cnccc32)c1` [Example 136, N-(3-(3-(4-(3-fluoro-2-methoxyphenoxy)phenyl)-2-oxo-2,3-dihydro-1H-imidazo[4,5-c]pyridin-1-yl)phenyl)acrylamide], 10 to 100 nM; with `C=CC(=O)N1CC[C@@H](n2c(=S)n(-c3ccc(Oc4cccc(C)c4)cc3)c3cnccc32)C1` [Example 11, (R)-1-(3-(2-thioxo-3-(4-(m-tolyloxy)phenyl)-2,3-dihydro-1H-imidazo[4,5-c]pyridin-1-yl)pyrrolidin-1-yl)prop-2-en-1-one], 100 to 1000 nM.
Regarding `C=CC(=O)N1CC[C@@H](n2c(=O)n(-c3ccc(C(=O)N4CCOCC4)cc3)c3cnccc32)C1` [Example 250, (R)-1-(1-acryloylpyrrolidin-3-yl)-3-(4-(morpholine-4-carbonyl)phenyl)-1H-imidazo[4,5-c]pyridin-2(3H)-one], the IC50 was 1000 to 10000 nM.
Consider `C=CC(=O)Nc1cccc(-n2c(=O)n(-c3ccc(-c4ccc(C)cc4)cc3)c3cnccc32)c1` [Example 276, N-(3-(3-(4′-methyl-[1,1′-biphenyl]-4-yl)-2-oxo-2,3-dihydro-1H-imidazo[4,5-c]pyridin-1-yl)phenyl)acrylamide], for which the IC50 is 1000 to 10000 nM.
For the compound `O=C(/C=C/c1ccccc1)N1CC[C@@H](n2c(=O)n(-c3ccc(Oc4ccccc4)cc3)c3cnccc32)C1` [Example 29, (R,E)-1-(1-cinnamoylpyrrolidin-3-yl)-3-(4-phenoxyphenyl)-1H-imidazo[4,5-c]pyridin-2(3H)-one], the IC50 was ≥ 10000 nM.
As for `C=CC(=O)N1CCC[C@@H](n2c(=O)n(-c3ccc(Oc4cccc(Cl)c4C)cc3)c3cnccc32)C1` [Example 134, (R)-1-(1-acryloylpiperidin-3-yl)-3-(4-(3-chloro-2-methylphenoxy)phenyl)-1H-imidazo[4,5-c]pyridin-2(3H)-one], the IC50 was in the range of 10 to 100 nM.
On to `C=CC(=O)N1CC[C@@H](n2c(=O)n(-c3ccc(OCc4ccccc4F)cc3)c3cnccc32)C1` [Example 216, (R)-1-(1-acryloylpyrrolidin-3-yl)-3-(4-((2-fluorobenzyl)oxy)phenyl)-1H-imidazo[4,5-c]pyridin-2(3H)-one], for which the IC50 lay in the range of 100 to 1000 nM.
Under `C=CC(=O)Nc1cccc(-n2c(=O)n(-c3ccc(Oc4cccc(Cl)c4)c(C)c3)c3cnccc32)c1` [Example 154, N-(3-(3-(4-(3-chlorophenoxy)-3-methylphenyl)-2-oxo-2,3-dihydro-1H-imidazo[4,5-c]pyridin-1-yl)phenyl)acrylamide] stands 1000 to 10000 nM; under `C=CC(=O)Nc1cccc(-n2c(=O)n(-c3ccc(NC(=O)c4ccc(C(F)(F)F)cc4)cc3)c3cnccc32)c1` [Example 263, N-(4-(1-(3-acrylamidophenyl)-2-oxo-1,2-dihydro-3H-imidazo[4,5-c]pyridin-3-yl)phenyl)-4-(trifluoromethyl)benzamide], 100 to 1000 nM.
Turning to `C=CC(=O)N1CC[C@@H](n2c(=O)n(-c3ccc(-c4ccc(OC)cc4F)cc3)c3cnccc32)C1` [Example 274], the IC50 is 100 to 1000 nM.
With `C=CC(=O)Nc1cccc(-n2c(=O)n(-c3ccc(OCc4cccc(F)c4)cc3)c3cnccc32)c1` [Example 222, N-(3-(3-(4-((3-fluorobenzyl)oxy)phenyl)-2-oxo-2,3-dihydro-1H-imidazo[4,5-c]pyridin-1-yl)phenyl)acrylamide] the figure was 10 to 100 nM; with `C=CC(=O)N1CC[C@@H](n2c(=O)n(-c3ccc(OCc4ccccc4C(F)(F)F)cc3)c3cnccc32)C1` [Example 210, (R)-1-(1-acryloylpyrrolidin-3-yl)-3-(4-((2-(trifluoromethyl)benzyl)oxy)phenyl)-1H-imidazo[4,5-c]pyridine-2(3H)-one], 10 to 100 nM; with `C=CC(=O)Nc1cccc(-n2c(=O)n(-c3ccc(Oc4cccc(Cl)c4C)cc3)c3cnccc32)c1` [Example 150, N-(3-(3-(4-(3-chloro-2-methylphenoxy)phenyl)-2-oxo-2,3-dihydro-1H-imidazo[4,5-c]pyridin-1-yl)phenyl)acrylamide], 10 to 100 nM.
`C=CC(=O)Nc1cccc(-n2c(=O)n(-c3ccc(Oc4ccc(OC)c(F)c4)cc3)c3cnccc32)c1` [Example 161, N-(3-(3-(4-(3-fluoro-4-methoxyphenoxy)phenyl)-2-oxo-2,3-dihydro-1H-imidazo[4,5-c]pyridin-1-yl)phenyl)acrylamide]: the IC50 is 100 to 1000 nM.
Under `C=CC(=O)N1CC[C@H](n2c(=O)n(-c3ccc(Oc4ccccc4)cc3)c3c(/C(N)=N/O)nccc32)C1` [Example 179, (S,Z)-1-(1-acryloylpyrrolidin-3-yl)-N′-hydroxy-2-oxo-3-(4-phenoxyphenyl)-2,3-dihydro-1H-imidazo[4,5-c] pyridine-4-carboximidamide] stands ≥ 10000 nM.

These data come from US10358446B2, “Bruton's tyrosine kinase inhibitors” (Zibo Biopolar Changsheng Pharmaceutical Co. Ltd., priority 2015, dated 2019).
